{
  "source": "patent US20190380954A1",
  "about": "“Bone Regeneration Agent” (Kao Corporation, priority 2017, published 2019)",
  "key": {"gums": {"test_system": "gums", "conditions": "niacin or an ester compound thereof, intraoral composition; cited from earlier work"}, "[1]": {"test_system": "alveolar bone of rats with ligature-induced periodontitis", "conditions": "niacin 25 mM in PBS, 100 μL dropped onto right and left second molars twice a day for 4 weeks after ligature removal; compared to PBS group; base line group 0%, Sham group 100%; Tukey, 5%", "experimental": "Twenty-eight 8-week-old male Wister Rats were purchased from Japan SLC, Inc., and the rats were acclimated for one week. Subsequently, the body weights of the rats were measured, and the rats were assigned into four groups (base line group, Sham group, PBS group, and niacin group) such that the average body weights of the groups would be even.\nUnder isoflurane inhalation anesthesia, No. 3-0 nylon sutures (manufactured by Akiyama Seisakusho Co., Ltd.) were ligated to the right and left second molars in the upper jaw of the rats of the base line group, PBS group, and niacin group to induce periodontitis, and the rats of the respective groups were reared for two weeks. […]\nAfter rearing for two weeks, the ligatures (No. 3-0 nylon sutures described above) were excised from the rats of the PBS group and the niacin group. For the base line group, the rats were euthanized by bleeding from the abdominal aorta under isoflurane inhalation anesthesia, and the alveolar bone resorption depths of the respective groups were measured by the following method. […]\nThe alveolar bone regeneration amount of the base line group was designated as 0%, and the alveolar bone regeneration amount of the Sham group was designated as 100%. Thus, the alveolar bone regeneration amounts of the PBS group and the niacin group were calculated from the average alveolar bone resorption depth thus calculated. […]"}, "[2]": {"test_system": "gums / periodontal pocket", "conditions": "blood circulation enhancers such as vitamin E; cited from earlier work"}, "[3]": {"test_system": "periodontal disease model rat", "conditions": "suppression of alveolar bone resorption is not reported; cited from earlier work"}},
  "data": [
    {"compound": "O=C(O)c1cccnc1", "note": "[niacin, niacin (nicotinic acid)]", "values": [
      {"measurement": "blood circulation in the gums", "setting": "gums", "value": "promotes blood circulation in the gums"},
      {"measurement": "regeneration amount of the alveolar bone", "setting": "[1]", "value": "significantly increased"}
    ]},
    {"compound": "vitamin E", "values": [
      {"measurement": "Gingival index (swelling of gums)", "setting": "[2]", "value": "do not improve"},
      {"measurement": "Periodontal probing depth (depth of periodontal pocket, reflecting extent of alveolar bone resorption)", "setting": "[2]", "value": "do not improve"},
      {"measurement": "inflammatory response", "setting": "[3]", "value": "suppresses inflammatory response"}
    ]}
  ]
}
